Assays:
Type in all cases: functional
Candida albicans [1] = test: Antifungal activity against Candida albicans ATCC 10231 assessed as reduction in fungal viability incubated for 48 hrs by microplate reader analysis
Nakaseomyces glabratus [2] = test: Antifungal activity against Candida glabrata 16 assessed as inhibition in fungal growth incubated for 48 hrs by microplate reader analysis
Aspergillus fumigatus [3] = test: Antifungal activity against Aspergillus fumigatus ATCC MYA-3627 assessed as inhibition in fungal growth incubated for 48 hrs in presence of 5% serum by microplate reader analysis
Aspergillus terreus [4] = test: Antifungal activity against Aspergillus terreus 191A6 assessed as reduction in fungal viability incubated for 48 hrs by microplate reader analysis
Aspergillus niger [5] = test: Antifungal activity against Aspergillus niger FGSC A732 assessed as reduction in fungal viability incubated for 48 hrs by microplate reader analysis
Aspergillus terreus [6] = test: Antifungal activity against Aspergillus terreus 191A6 assessed as reduction in fungal growth incubated for 48 hrs by microplate reader analysis
[Candida] auris [7] = Antifungal activity against multidrug-resistant Candida auris 386 assessed as inhibition in fungal growth incubated for 48 hrs by microplate reader analysis; settings: Candidozyma auris
Nakaseomyces glabratus [8] = test: Antifungal activity against Candida glabrata 20 assessed as inhibition in fungal growth incubated for 48 hrs by microplate reader analysis
Candida albicans [9] = test: Antifungal activity against Candida albicans 10 assessed as inhibition in fungal growth incubated for 48 hrs by microplate reader analysis
Candida albicans [10] = test: Antifungal activity against Candida albicans 14 assessed as inhibition in fungal growth incubated for 48 hrs by microplate reader analysis
Candida parapsilosis [11] = test: Antifungal activity against Candida parapsilosis 15 assessed as inhibition in fungal growth incubated for 48 hrs by microplate reader analysis; settings: Lodderomyces parapsilosis
[Candida] auris [12] = Antifungal activity against multidrug-resistant Candida auris 381 assessed as inhibition in fungal growth incubated for 48 hrs by microplate reader analysis; settings: Candidozyma auris
[Candida] auris [13] = Antifungal activity against multidrug-resistant Candida auris 389 assessed as inhibition in fungal growth incubated for 48 hrs by microplate reader analysis; settings: Candidozyma auris
Hamigera insecticola = test: Antifungal activity against Hamigera insecticola NRRL35442 assessed as reduction in fungal viability incubated for 48 hrs by microplate reader analysis
[Candida] auris [14] = Antifungal activity against multidrug-resistant Candida auris 381 assessed as inhibition in fungal growth incubated for 48 hrs in presence of 5% serum by microplate reader analysis; settings: Candidozyma auris
Candida albicans [15] = test: Antifungal activity against Candida albicans 30 assessed as inhibition in fungal growth incubated for 48 hrs by microplate reader analysis
[Candida] auris [16] = Antifungal activity against multidrug-resistant Candida auris 381 assessed as inhibition in fungal growth incubated for 48 hrs in presence of 0% serum by microplate reader analysis; settings: Candidozyma auris
Candida albicans [17] = test: Antifungal activity against Candida albicans SC5314 assessed as inhibition in fungal growth incubated for 48 hrs in presence of 10% serum by microplate reader analysis
Candida parapsilosis [18] = test: Antifungal activity against Candida parapsilosis ATCC 22019 (Y-12969) assessed as reduction in fungal viability incubated for 48 hrs by microplate reader analysis
Candida duobushaemulonii = test: Antifungal activity against multidrug-resistant Candida duobushaemulonii 392 assessed as inhibition in fungal growth incubated for 48 hrs by microplate reader analysis; settings: Candidozyma duobushaemuli
[Candida] auris [19] = Antifungal activity against multidrug-resistant Candida auris 385 assessed as inhibition in fungal growth incubated for 48 hrs by microplate reader analysis; settings: Candidozyma auris
Candida parapsilosis [20] = test: Antifungal activity against Candida parapsilosis 23 assessed as inhibition in fungal growth incubated for 48 hrs by microplate reader analysis; settings: Lodderomyces parapsilosis
Cryptococcus neoformans [21] = test: Antifungal activity against Cryptococcus neoformans H99 assessed as inhibition in fungal growth incubated for 48 hrs in presence of 5% serum by microplate reader analysis
Nakaseomyces glabratus [22] = test: Antifungal activity against Candida glabrata 4 assessed as inhibition in fungal growth incubated for 48 hrs by microplate reader analysis
Pichia kudriavzevii [23] = test: Antifungal activity against Candida krusei 25 assessed as inhibition in fungal growth incubated for 48 hrs by microplate reader analysis
Pichia kudriavzevii [24] = test: Antifungal activity against Candida krusei ATCC 6258 (Y-7179) assessed as reduction in fungal viability incubated for 48 hrs by microplate reader analysis
Aspergillus niger [25] = test: Antifungal activity against Aspergillus niger FGSC A732 assessed as reduction in fungal growth incubated for 48 hrs by microplate reader analysis
Aspergillus fumigatus [26] = test: Antifungal activity against Aspergillus fumigatus ATCC MYA-3627 assessed as inhibition in fungal growth incubated for 48 hrs in presence of 10% serum by microplate reader analysis
Kodamaea ohmeri = test: Antifungal activity against multidrug-resistant Kodamaea ohmeri 396 assessed as inhibition in fungal growth incubated for 48 hrs by microplate reader analysis
Candida albicans [27] = test: Antifungal activity against Candida albicans 1 assessed as inhibition in fungal growth incubated for 48 hrs by microplate reader analysis
Aspergillus fumigatus [28] = test: Antifungal activity against Aspergillus fumigatus NRRL6113 assessed as reduction in fungal viability incubated for 48 hrs by microplate reader analysis
Aspergillus fumigatus [29] = test: Antifungal activity against Aspergillus fumigatus MYA 3627 assessed as reduction in fungal growth incubated for 48 hrs by microplate reader analysis
Saccharomyces cerevisiae [30] = test: Antifungal activity against multidrug-resistant Saccharomyces cerevisiae 399 assessed as inhibition in fungal growth incubated for 48 hrs by microplate reader analysis
Candida albicans [31] = test: Antifungal activity against Candida albicans 21 assessed as inhibition in fungal growth incubated for 48 hrs by microplate reader analysis
[Candida] auris [32] = Antifungal activity against multidrug-resistant Candida auris 381 assessed as inhibition in fungal growth incubated for 48 hrs in presence of 10% serum by microplate reader analysis; settings: Candidozyma auris
Pichia kudriavzevii [33] = test: Antifungal activity against multidrug-resistant Candida krusei 397 assessed as inhibition in fungal growth incubated for 48 hrs by microplate reader analysis
Candida albicans [34] = test: Antifungal activity against Candida albicans 24 assessed as inhibition in fungal growth incubated for 48 hrs by microplate reader analysis
Curvularia lunata [35] = test: Antifungal activity against Curvularia lunata NRRL6409 assessed as reduction in fungal viability incubated for 48 hrs by microplate reader analysis
Candida albicans [36] = test: Antifungal activity against Candida albicans ATCC 10231 assessed as reduction in fungal growth incubated for 48 hrs by microplate reader analysis
Kluyveromyces marxianus = test: Antifungal activity against Candida kefyr 12 assessed as inhibition in fungal growth incubated for 48 hrs by microplate reader analysis
Saccharomyces cerevisiae [37] = test: Antifungal activity against multidrug-resistant Saccharomyces cerevisiae 400 assessed as inhibition in fungal growth incubated for 48 hrs by microplate reader analysis
Cryptococcus neoformans [38] = test: Antifungal activity against Cryptococcus neoformans H99 assessed as reduction in fungal growth incubated for 48 hrs by microplate reader analysis
Cryptococcus neoformans [39] = test: Antifungal activity against Cryptococcus neoformans H99 assessed as reduction in fungal viability incubated for 48 hrs by microplate reader analysis
Curvularia lunata [40] = test: Antifungal activity against Curvularia lunata NRRL6409 assessed as reduction in fungal growth incubated for 48 hrs by microplate reader analysis

CC[C@H](C)C[C@H](C)C[C@H](C)C[C@@H]1NC(=O)[C@H](C(C)C)N(C)C(=O)[C@@H]([C@H](C)CC)OC(=O)[C@H](C(C)(C)O)N(C)C(=O)[C@H](CC(C)C)NC(=O)[C@H](C(C)C)N(C)C(=O)[C@H]([C@H](C)CC)NC(=O)[C@@H]2CCCN2C(=O)CN(C)C1=O
>10 µM: MFC<=99.9 (Aspergillus terreus [4]) | MFC<=99.9 (Aspergillus niger [5])
> 10 µM: MFC (Aspergillus terreus [6]) | MFC (Aspergillus niger [25])
2.5 µM: MIC80 (Aspergillus fumigatus [3]) | MIC80 (Aspergillus terreus [6]) | MIC80 ([Candida] auris [7]) | MIC80 (Candida albicans [9]) | MIC80 (Candida parapsilosis [11]) | MIC80 ([Candida] auris [12]) | MIC80 ([Candida] auris [13]) | MFC<=99.9 (Candida parapsilosis [18]) | MIC80 (Candida duobushaemulonii) | MIC80 ([Candida] auris [19]) | MIC80 (Candida parapsilosis [20]) | MFC<=99.9 (Pichia kudriavzevii [24]) | MIC80 (Aspergillus fumigatus [26]) | MIC80 (Kodamaea ohmeri) | MIC80 (Candida albicans [27]) | MIC80 (Aspergillus fumigatus [29]) | MIC80 (Saccharomyces cerevisiae [30]) | MIC80 (Pichia kudriavzevii [33]) | MIC80 (Saccharomyces cerevisiae [37]) | MFC (Cryptococcus neoformans [38]) | MFC<=99.9 (Cryptococcus neoformans [39])
1.3 µM: MFC<=99.9 (Candida albicans [1]) | MIC80 ([Candida] auris [14]) | MIC80 ([Candida] auris [16]) | MIC80 (Nakaseomyces glabratus [22]) | MIC80 (Pichia kudriavzevii [23]) | MIC80 (Aspergillus niger [25]) | MIC80 (Candida albicans [31]) | MIC80 ([Candida] auris [32]) | MFC (Candida albicans [36]) | MIC80 (Kluyveromyces marxianus)
0.6 µM: MIC80 (Candida albicans [10]) | MIC80 (Candida albicans [34]) | MFC<=99.9 (Curvularia lunata [35]) | MIC80 (Candida albicans [36]) | MIC80 (Cryptococcus neoformans [38]) | MFC (Curvularia lunata [40])
5 µM: MFC<=99.9 (Hamigera insecticola) | MIC80 (Candida albicans [15]) | MFC<=99.9 (Aspergillus fumigatus [28]) | MFC (Aspergillus fumigatus [29])
0.3 µM: MIC80 (Nakaseomyces glabratus [2]) | MIC80 (Nakaseomyces glabratus [8]) | MIC80 (Candida albicans [17]) | MIC80 (Curvularia lunata [40])
< 0.2 µM: MIC80 (Cryptococcus neoformans [21])

C[C@@H]1[C@H](O)[C@@H](C)/C=C/C=C/C=C/C=C/C=C/C=C/C=C/[C@H](O[C@@H]2O[C@H](C)[C@@H](O)[C@H](N)[C@@H]2O)C[C@@H]2O[C@](O)(C[C@@H](O)C[C@@H](O)[C@H](O)CC[C@@H](O)C[C@@H](O)CC(=O)O[C@H]1C)C[C@H](O)[C@H]2C(=O)O [AMPHOTERICIN B]
0.3 µM: MIC80 ([Candida] auris [32]) | MIC80 (Kluyveromyces marxianus) | MIC80 (Curvularia lunata [40])
10 µM: MFC<=99.9 (Aspergillus terreus [4]) | MFC (Aspergillus terreus [6]) | MFC<=99.9 (Hamigera insecticola) | MFC<=99.9 (Aspergillus fumigatus [28])
2.5 µM: MFC<=99.9 (Candida albicans [1]) | MFC<=99.9 (Aspergillus niger [5]) | MIC80 (Aspergillus terreus [6]) | MIC80 ([Candida] auris [7]) | MIC80 (Candida parapsilosis [11]) | MIC80 (Candida albicans [15]) | MIC80 ([Candida] auris [16]) | MIC80 ([Candida] auris [19]) | MFC (Aspergillus niger [25]) | MFC (Aspergillus fumigatus [29]) | MIC80 (Aspergillus fumigatus [29]) | MIC80 (Saccharomyces cerevisiae [30]) | MIC80 (Pichia kudriavzevii [33]) | MFC<=99.9 (Curvularia lunata [35]) | MFC (Candida albicans [36]) | MFC (Cryptococcus neoformans [38]) | MFC<=99.9 (Cryptococcus neoformans [39]) | MFC (Curvularia lunata [40])
< 0.1 µM: MIC80 (Aspergillus fumigatus [3])
0.6 µM: MIC80 (Nakaseomyces glabratus [8]) | MIC80 (Candida albicans [9]) | MIC80 (Aspergillus niger [25]) | MIC80 (Candida albicans [27]) | MIC80 (Candida albicans [31]) | MIC80 (Candida albicans [36])
0.2 µM: MIC80 (Nakaseomyces glabratus [2]) | MIC80 (Aspergillus fumigatus [26])
< 0.2 µM: MIC80 ([Candida] auris [14]) | MIC80 (Candida albicans [17]) | MIC80 (Cryptococcus neoformans [21])
1.3 µM: MIC80 (Candida albicans [10]) | MIC80 ([Candida] auris [12]) | MIC80 (Candida parapsilosis [20]) | MIC80 (Nakaseomyces glabratus [22]) | MIC80 (Pichia kudriavzevii [23]) | MIC80 (Kodamaea ohmeri) | MIC80 (Candida albicans [34]) | MIC80 (Saccharomyces cerevisiae [37]) | MIC80 (Cryptococcus neoformans [38])
5 µM: MIC80 ([Candida] auris [13]) | MFC<=99.9 (Candida parapsilosis [18]) | MIC80 (Candida duobushaemulonii) | MFC<=99.9 (Pichia kudriavzevii [24])

Reference: ChEMBL document CHEMBL5390204, “Persephacin Is a Broad-Spectrum Antifungal Aureobasidin Metabolite That Overcomes Intrinsic Resistance in Aspergillus fumigatus” (J Nat Prod, 2023)
